Legend:
Experiment in all cases: radiometric filter-binding kinase assay, Kinase HotSpot
Conditions in all cases: compound 0.5 µM; ATP 10 µM
WEE1 (human) = WEE1 (human) (UniProt P30291)
MARK4 (human) = MARK4 (human) (UniProt Q96L34)
CSNK1G3 (human) = CSNK1G3 (human) (UniProt Q9Y6M4)
DAPK3 (human) = DAPK3 (human) (UniProt O43293)
PKN1 (human) = PKN1 (human) (UniProt Q16512)
MAPK9 (human) = MAPK9 (human) (UniProt P45984)
BLK (human) = BLK (human) (UniProt P51451)
CDK2 CCNA2 (human) = CDK2 CCNA2 (human) (UniProt P24941+P20248)
STK39 (human) = STK39 (human) (UniProt Q9UEW8)
TGFBR2 (human) = TGFBR2 (human) (UniProt P37173)
DCLK2 (human) = DCLK2 (human) (UniProt Q8N568)
PRKD3 (human) = PRKD3 (human) (UniProt O94806)
STK4 (human) = STK4 (human) (UniProt Q13043)
GRK5 (human) = GRK5 (human) (UniProt P34947)
INSR (human) = INSR (human) (UniProt P06213)
SGK3 (human) = SGK3 (human) (UniProt Q96BR1)
FRK (human) = FRK (human) (UniProt P42685)
Chain of FRK (human) (P42685 whole entry, looked up): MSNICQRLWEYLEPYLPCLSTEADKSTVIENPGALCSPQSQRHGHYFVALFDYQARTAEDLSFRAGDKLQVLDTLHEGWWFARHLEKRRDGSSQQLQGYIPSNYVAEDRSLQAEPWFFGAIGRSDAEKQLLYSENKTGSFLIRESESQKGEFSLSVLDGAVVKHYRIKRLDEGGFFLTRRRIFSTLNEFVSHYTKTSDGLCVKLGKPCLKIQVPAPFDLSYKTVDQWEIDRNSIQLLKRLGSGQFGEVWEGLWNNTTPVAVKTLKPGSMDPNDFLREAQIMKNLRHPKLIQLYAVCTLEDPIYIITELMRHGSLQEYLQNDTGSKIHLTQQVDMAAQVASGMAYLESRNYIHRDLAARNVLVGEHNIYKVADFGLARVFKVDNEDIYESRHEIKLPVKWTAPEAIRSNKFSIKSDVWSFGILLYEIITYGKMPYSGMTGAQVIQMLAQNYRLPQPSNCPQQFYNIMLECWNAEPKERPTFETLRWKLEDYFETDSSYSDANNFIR

RPS6KA6 KD1 KD2 (human) = RPS6KA6 KD1 KD2 (human) (UniProt Q9UK32)
PRKCZ (human) = PRKCZ (human) (UniProt Q05513)
CLK1 (human) = CLK1 (human) (UniProt P49759)
MAP2K1 (human) = MAP2K1 (human) (UniProt Q02750)
Chain of MAP2K1 (human) (Q02750 whole entry, looked up): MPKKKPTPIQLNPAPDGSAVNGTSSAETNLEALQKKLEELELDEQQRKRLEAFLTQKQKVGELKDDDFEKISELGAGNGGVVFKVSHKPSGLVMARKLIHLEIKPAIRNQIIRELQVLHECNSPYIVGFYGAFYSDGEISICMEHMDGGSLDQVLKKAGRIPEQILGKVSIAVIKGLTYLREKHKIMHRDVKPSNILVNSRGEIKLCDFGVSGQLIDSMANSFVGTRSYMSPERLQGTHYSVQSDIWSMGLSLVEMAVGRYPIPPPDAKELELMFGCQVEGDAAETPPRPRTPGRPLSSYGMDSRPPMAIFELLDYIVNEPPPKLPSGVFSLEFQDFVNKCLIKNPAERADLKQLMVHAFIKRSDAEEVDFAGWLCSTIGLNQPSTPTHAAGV

ZAP70 (human) = ZAP70 (human) (UniProt P43403)
RPS6KA1 KD1 KD2 (human) = RPS6KA1 KD1 KD2 (human) (UniProt Q15418)
Chain of RPS6KA1 KD1 KD2 (human) (Q15418 whole entry, looked up): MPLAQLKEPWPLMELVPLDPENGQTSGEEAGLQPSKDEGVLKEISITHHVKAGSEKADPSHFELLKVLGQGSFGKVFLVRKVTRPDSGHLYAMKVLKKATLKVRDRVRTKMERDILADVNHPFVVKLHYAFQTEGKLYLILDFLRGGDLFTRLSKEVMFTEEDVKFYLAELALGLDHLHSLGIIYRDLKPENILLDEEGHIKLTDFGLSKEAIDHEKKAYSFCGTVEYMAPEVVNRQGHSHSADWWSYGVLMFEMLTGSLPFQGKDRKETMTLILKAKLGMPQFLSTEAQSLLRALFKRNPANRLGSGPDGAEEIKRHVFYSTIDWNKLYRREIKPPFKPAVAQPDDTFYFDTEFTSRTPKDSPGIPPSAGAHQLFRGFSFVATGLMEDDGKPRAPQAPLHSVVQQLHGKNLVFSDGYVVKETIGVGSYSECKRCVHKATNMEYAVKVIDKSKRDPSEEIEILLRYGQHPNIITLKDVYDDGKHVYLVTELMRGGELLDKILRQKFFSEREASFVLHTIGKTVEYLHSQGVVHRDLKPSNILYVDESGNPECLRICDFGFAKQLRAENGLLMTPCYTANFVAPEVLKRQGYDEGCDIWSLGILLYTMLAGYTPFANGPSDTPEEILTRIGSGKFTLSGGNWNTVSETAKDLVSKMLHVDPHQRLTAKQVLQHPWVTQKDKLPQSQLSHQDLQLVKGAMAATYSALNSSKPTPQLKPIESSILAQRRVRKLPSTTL

MAPK11 (human) = MAPK11 (human) (UniProt Q15759)
PAK2 (human) = PAK2 (human) (UniProt Q13177)
CAMK2A (human) = CAMK2A (human) (UniProt Q9UQM7)
CSNK1D (human) = CSNK1D (human) (UniProt P48730)
FGFR1 (human) = FGFR1 (human) (UniProt P11362)
EPHB4 (human) = EPHB4 (human) (UniProt P54760)
MYLK (human) = MYLK (human) (UniProt Q15746)
RPS6KB1 (human) = RPS6KB1 (human) (UniProt P23443)
TGFBR1 (human) = TGFBR1 (human) (UniProt P36897)
Chain of TGFBR1 (human) (P36897 whole entry, looked up): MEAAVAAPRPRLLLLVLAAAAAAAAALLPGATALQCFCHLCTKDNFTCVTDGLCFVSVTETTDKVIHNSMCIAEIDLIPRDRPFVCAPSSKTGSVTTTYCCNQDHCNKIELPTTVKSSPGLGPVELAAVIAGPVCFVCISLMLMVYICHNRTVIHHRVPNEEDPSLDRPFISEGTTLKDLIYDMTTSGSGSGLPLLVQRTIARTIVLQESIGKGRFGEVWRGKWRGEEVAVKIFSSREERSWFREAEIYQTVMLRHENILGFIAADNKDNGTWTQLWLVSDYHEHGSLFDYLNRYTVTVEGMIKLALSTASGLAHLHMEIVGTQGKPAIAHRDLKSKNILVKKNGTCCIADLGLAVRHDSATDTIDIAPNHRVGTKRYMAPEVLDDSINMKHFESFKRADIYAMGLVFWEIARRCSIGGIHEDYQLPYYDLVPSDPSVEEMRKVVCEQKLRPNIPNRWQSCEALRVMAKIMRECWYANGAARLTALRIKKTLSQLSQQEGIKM

[1] = target: TYK2 JH1 catalytic (human) (UniProt P29597)
NTRK1 (human) = NTRK1 (human) (UniProt P04629)
SLK (human) = SLK (human) (UniProt Q9H2G2)
WNK3 (human) = WNK3 (human) (UniProt Q9BYP7)
Chain of WNK3 (human) (Q9BYP7 whole entry, looked up): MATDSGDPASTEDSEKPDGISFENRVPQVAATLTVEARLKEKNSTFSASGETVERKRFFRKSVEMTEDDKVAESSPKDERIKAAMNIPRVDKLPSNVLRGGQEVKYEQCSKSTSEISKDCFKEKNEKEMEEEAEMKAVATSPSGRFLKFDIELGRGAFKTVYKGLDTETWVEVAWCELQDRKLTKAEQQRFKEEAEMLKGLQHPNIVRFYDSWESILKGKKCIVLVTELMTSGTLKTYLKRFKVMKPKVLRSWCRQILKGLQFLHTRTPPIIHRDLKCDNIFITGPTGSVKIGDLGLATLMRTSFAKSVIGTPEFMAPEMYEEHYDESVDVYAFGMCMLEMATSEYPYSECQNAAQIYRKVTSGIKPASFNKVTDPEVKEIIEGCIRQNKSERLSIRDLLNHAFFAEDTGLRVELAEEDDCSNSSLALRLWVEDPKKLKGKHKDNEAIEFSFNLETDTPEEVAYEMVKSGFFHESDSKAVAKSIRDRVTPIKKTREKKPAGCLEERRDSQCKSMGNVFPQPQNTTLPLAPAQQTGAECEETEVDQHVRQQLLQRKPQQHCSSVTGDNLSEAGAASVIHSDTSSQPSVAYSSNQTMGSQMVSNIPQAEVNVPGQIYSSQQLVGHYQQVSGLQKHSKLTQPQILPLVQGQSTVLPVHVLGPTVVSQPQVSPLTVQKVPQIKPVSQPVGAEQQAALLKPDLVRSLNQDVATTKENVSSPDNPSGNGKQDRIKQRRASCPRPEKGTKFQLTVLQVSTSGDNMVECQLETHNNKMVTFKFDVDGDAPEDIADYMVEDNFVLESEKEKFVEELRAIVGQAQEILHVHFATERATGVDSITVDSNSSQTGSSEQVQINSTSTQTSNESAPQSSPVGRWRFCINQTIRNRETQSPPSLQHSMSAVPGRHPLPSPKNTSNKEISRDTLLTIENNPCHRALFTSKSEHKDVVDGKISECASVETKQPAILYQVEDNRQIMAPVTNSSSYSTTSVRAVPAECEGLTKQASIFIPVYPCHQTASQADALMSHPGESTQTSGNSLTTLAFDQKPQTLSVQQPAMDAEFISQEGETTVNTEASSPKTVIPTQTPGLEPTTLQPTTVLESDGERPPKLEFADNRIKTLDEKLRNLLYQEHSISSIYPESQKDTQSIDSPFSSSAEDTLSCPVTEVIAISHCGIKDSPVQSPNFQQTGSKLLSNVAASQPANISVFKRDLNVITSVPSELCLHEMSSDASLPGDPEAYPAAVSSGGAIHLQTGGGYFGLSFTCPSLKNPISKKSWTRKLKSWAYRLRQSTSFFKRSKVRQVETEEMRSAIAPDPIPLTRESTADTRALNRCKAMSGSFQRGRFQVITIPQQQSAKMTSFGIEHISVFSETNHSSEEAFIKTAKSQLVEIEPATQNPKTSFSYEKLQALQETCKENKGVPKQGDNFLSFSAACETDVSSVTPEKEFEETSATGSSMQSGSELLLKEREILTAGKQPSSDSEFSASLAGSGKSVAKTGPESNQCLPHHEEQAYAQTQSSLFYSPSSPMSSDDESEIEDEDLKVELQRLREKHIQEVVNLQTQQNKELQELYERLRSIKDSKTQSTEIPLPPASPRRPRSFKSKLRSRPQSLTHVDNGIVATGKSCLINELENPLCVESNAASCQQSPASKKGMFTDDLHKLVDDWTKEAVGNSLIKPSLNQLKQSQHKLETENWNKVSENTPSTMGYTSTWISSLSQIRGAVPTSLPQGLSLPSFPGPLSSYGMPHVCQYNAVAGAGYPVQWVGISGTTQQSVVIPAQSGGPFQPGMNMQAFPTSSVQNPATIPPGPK

BRSK1 (human) = BRSK1 (human) (UniProt Q8TDC3)
CDK1 CCNB1 (human) = CDK1 CCNB1 (human) (UniProt P06493+P14635)
AURKA (human) = AURKA (human) (UniProt O14965)
MARK2 (human) = MARK2 (human) (UniProt Q7KZI7)
MUSK (human) = MUSK (human) (UniProt O15146)
[2] = tested on: SGK1 (human), O00141 [S422D]
Chain of SGK1 (human), O00141 [S422D] (O00141 whole entry S422D, looked up): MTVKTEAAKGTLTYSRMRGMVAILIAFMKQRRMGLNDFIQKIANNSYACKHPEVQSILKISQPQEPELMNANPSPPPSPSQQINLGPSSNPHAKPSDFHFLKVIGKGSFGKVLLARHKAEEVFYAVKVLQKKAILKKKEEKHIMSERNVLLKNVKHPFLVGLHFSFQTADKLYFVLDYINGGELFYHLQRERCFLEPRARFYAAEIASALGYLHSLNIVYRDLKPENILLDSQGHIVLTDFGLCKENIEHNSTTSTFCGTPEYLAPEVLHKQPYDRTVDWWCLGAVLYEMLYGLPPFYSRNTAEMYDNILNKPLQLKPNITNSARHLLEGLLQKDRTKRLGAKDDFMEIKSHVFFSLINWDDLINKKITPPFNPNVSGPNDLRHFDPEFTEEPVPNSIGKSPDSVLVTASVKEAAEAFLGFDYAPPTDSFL

Chain of WEE1 (human) (P30291 whole entry, looked up): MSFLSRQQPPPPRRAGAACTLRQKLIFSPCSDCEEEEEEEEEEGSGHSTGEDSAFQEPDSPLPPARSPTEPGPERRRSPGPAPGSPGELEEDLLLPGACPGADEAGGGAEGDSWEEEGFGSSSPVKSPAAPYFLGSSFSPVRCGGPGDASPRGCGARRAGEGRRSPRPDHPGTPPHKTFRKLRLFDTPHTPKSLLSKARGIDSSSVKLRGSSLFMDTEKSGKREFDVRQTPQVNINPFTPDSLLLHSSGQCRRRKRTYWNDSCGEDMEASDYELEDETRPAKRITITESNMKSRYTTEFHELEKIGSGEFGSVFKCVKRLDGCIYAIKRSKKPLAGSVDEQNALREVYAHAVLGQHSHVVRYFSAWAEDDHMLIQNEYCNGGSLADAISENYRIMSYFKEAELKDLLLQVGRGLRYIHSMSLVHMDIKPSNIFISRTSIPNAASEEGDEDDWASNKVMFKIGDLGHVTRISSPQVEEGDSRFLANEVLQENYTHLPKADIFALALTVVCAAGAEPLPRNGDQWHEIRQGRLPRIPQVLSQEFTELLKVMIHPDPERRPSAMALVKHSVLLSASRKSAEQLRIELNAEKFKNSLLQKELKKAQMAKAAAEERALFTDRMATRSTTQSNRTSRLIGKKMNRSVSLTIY

## COc1cccc(-c2cc(=O)c3ccccc3o2)c1N
WEE1 (human)
  residual activity: 83%
MARK4 (human)
  residual activity: 77.8%
CSNK1G3 (human)
  residual activity: 97.7%
DAPK3 (human)
  residual activity: 101%
PKN1 (human)
  residual activity: 102%
MAPK9 (human)
  residual activity: 89.8%
BLK (human)
  residual activity: 107%
CDK2 CCNA2 (human)
  residual activity: 102%
STK39 (human)
  residual activity: 86.8%
TGFBR2 (human)
  residual activity: 115%
DCLK2 (human)
  residual activity: 88.3%
PRKD3 (human)
  residual activity: 94.3%
STK4 (human)
  residual activity: 92.1%
GRK5 (human)
  residual activity: 97.3%
INSR (human)
  residual activity: 106%
SGK3 (human)
  residual activity: 101%
FRK (human)
  residual activity: 89.5%
RPS6KA6 KD1 KD2 (human)
  residual activity: 95.2%
PRKCZ (human)
  residual activity: 99.1%
CLK1 (human)
  residual activity: 97.7%
MAP2K1 (human)
  residual activity: 69.1%
ZAP70 (human)
  residual activity: 107%
RPS6KA1 KD1 KD2 (human)
  residual activity: 92.7%
MAPK11 (human)
  residual activity: 108%
PAK2 (human)
  residual activity: 104%
CAMK2A (human)
  residual activity: 93.6%
CSNK1D (human)
  residual activity: 99.1%
FGFR1 (human)
  residual activity: 96.8%
EPHB4 (human)
  residual activity: 101%
MYLK (human)
  residual activity: 98.9%
RPS6KB1 (human)
  residual activity: 98%
TGFBR1 (human)
  residual activity: 94.7%
[1]
  residual activity: 92.7%
NTRK1 (human)
  residual activity: 99.9%
SLK (human)
  residual activity: 102%
WNK3 (human)
  residual activity: 96.3%
BRSK1 (human)
  residual activity: 84.9%
CDK1 CCNB1 (human)
  residual activity: 99.8%
AURKA (human)
  residual activity: 107%
MARK2 (human)
  residual activity: 84.9%
MUSK (human)
  residual activity: 94.2%
[2]
  residual activity: 102%

## O=C(O)c1ccc2c3c1cccc3c(=O)n1c3ccccc3nc21
WEE1 (human)
  residual activity: 84.6%
MARK4 (human)
  residual activity: 88.4%
CSNK1G3 (human)
  residual activity: 96.9%
DAPK3 (human)
  residual activity: 51.3%
PKN1 (human)
  residual activity: 99.5%
MAPK9 (human)
  residual activity: 97.5%
BLK (human)
  residual activity: 100%
CDK2 CCNA2 (human)
  residual activity: 82.7%
STK39 (human)
  residual activity: 102%
TGFBR2 (human)
  residual activity: 133%
DCLK2 (human)
  residual activity: 96.7%
PRKD3 (human)
  residual activity: 82.2%
STK4 (human)
  residual activity: 93.3%
GRK5 (human)
  residual activity: 97.1%
INSR (human)
  residual activity: 91.5%
SGK3 (human)
  residual activity: 103%
FRK (human)
  residual activity: 97.6%
RPS6KA6 KD1 KD2 (human)
  residual activity: 101%
PRKCZ (human)
  residual activity: 94.3%
CLK1 (human)
  residual activity: 93.8%
MAP2K1 (human)
  residual activity: 93.7%
ZAP70 (human)
  residual activity: 119%
RPS6KA1 KD1 KD2 (human)
  residual activity: 101%
MAPK11 (human)
  residual activity: 105%
PAK2 (human)
  residual activity: 97%
CAMK2A (human)
  residual activity: 85.2%
CSNK1D (human)
  residual activity: 101%
FGFR1 (human)
  residual activity: 84.7%
EPHB4 (human)
  residual activity: 90.6%
MYLK (human)
  residual activity: 89.8%
RPS6KB1 (human)
  residual activity: 95.9%
TGFBR1 (human)
  residual activity: 99.4%
[1]
  residual activity: 22.8%
NTRK1 (human)
  residual activity: 105%
SLK (human)
  residual activity: 94.1%
WNK3 (human)
  residual activity: 95.8%
BRSK1 (human)
  residual activity: 89%
CDK1 CCNB1 (human)
  residual activity: 65%
AURKA (human)
  residual activity: 78.6%
MARK2 (human)
  residual activity: 87.7%
MUSK (human)
  residual activity: 47.1%
[2]
  residual activity: 102%

## COc1cc2c(cc1OC)-c1[nH]nc(Nc3cccc(F)c3)c1C2
WEE1 (human)
  residual activity: 93%
MARK4 (human)
  residual activity: 70.6%
CSNK1G3 (human)
  residual activity: 95%
DAPK3 (human)
  residual activity: 100%
PKN1 (human)
  residual activity: 106%
MAPK9 (human)
  residual activity: 75.9%
BLK (human)
  residual activity: 74.2%
CDK2 CCNA2 (human)
  residual activity: 87.5%
STK39 (human)
  residual activity: 105%
TGFBR2 (human)
  residual activity: 100%
DCLK2 (human)
  residual activity: 88.2%
PRKD3 (human)
  residual activity: 93.1%
STK4 (human)
  residual activity: 91.5%
GRK5 (human)
  residual activity: 95.8%
INSR (human)
  residual activity: 101%
SGK3 (human)
  residual activity: 92.7%
FRK (human)
  residual activity: 67.9%
RPS6KA6 KD1 KD2 (human)
  residual activity: 93.6%
PRKCZ (human)
  residual activity: 99.7%
CLK1 (human)
  residual activity: 102%
MAP2K1 (human)
  residual activity: 90.1%
ZAP70 (human)
  residual activity: 95.3%
RPS6KA1 KD1 KD2 (human)
  residual activity: 84.1%
MAPK11 (human)
  residual activity: 83%
PAK2 (human)
  residual activity: 99.6%
CAMK2A (human)
  residual activity: 95.6%
CSNK1D (human)
  residual activity: 99.9%
FGFR1 (human)
  residual activity: 99.2%
EPHB4 (human)
  residual activity: 95.3%
MYLK (human)
  residual activity: 102%
RPS6KB1 (human)
  residual activity: 99.1%
TGFBR1 (human)
  residual activity: 101%
[1]
  residual activity: 81.3%
NTRK1 (human)
  residual activity: 98.8%
SLK (human)
  residual activity: 95.4%
WNK3 (human)
  residual activity: 104%
BRSK1 (human)
  residual activity: 89.3%
CDK1 CCNB1 (human)
  residual activity: 101%
AURKA (human)
  residual activity: 94.6%
MARK2 (human)
  residual activity: 77.2%
MUSK (human)
  residual activity: 82.7%
[2]
  residual activity: 99.8%

## N#C/C(=C1/Nc2ccccc2S1)c1ccnc(NCCc2cccnc2)n1
WEE1 (human)
  residual activity: 88.5%
MARK4 (human)
  residual activity: 91.6%
CSNK1G3 (human)
  residual activity: 87.1%
DAPK3 (human)
  residual activity: 109%
PKN1 (human)
  residual activity: 96.3%
MAPK9 (human)
  residual activity: 67.5%
BLK (human)
  residual activity: 102%
CDK2 CCNA2 (human)
  residual activity: 94.4%
STK39 (human)
  residual activity: 96.9%
TGFBR2 (human)
  residual activity: 102%
DCLK2 (human)
  residual activity: 96%
PRKD3 (human)
  residual activity: 64.7%
STK4 (human)
  residual activity: 92.2%
GRK5 (human)
  residual activity: 93.8%
INSR (human)
  residual activity: 100%
SGK3 (human)
  residual activity: 107%
FRK (human)
  residual activity: 97.5%
RPS6KA6 KD1 KD2 (human)
  residual activity: 87%
PRKCZ (human)
  residual activity: 102%
CLK1 (human)
  residual activity: 75.4%
MAP2K1 (human)
  residual activity: 93.2%
ZAP70 (human)
  residual activity: 94.5%
RPS6KA1 KD1 KD2 (human)
  residual activity: 79%
MAPK11 (human)
  residual activity: 101%
PAK2 (human)
  residual activity: 103%
CAMK2A (human)
  residual activity: 105%
CSNK1D (human)
  residual activity: 65%
FGFR1 (human)
  residual activity: 99%
EPHB4 (human)
  residual activity: 99.7%
MYLK (human)
  residual activity: 97.9%
RPS6KB1 (human)
  residual activity: 98.2%
TGFBR1 (human)
  residual activity: 97.8%
[1]
  residual activity: 83.2%
NTRK1 (human)
  residual activity: 106%
SLK (human)
  residual activity: 87.7%
WNK3 (human)
  residual activity: 81.3%
BRSK1 (human)
  residual activity: 92.7%
CDK1 CCNB1 (human)
  residual activity: 96.8%
AURKA (human)
  residual activity: 83.8%
MARK2 (human)
  residual activity: 97.9%
MUSK (human)
  residual activity: 14.8%
[2]
  residual activity: 100%
